We go through two molecules from US20250283896A1, “PROBES AND METHODS FOR TARGETED VISUALIZATION OF NLRP3 INFLAMMASOMES” (VANDERBILT UNIVERSITY, priority 2022, published 2025).

Data set [1] deals with primary mouse retinal microvascular endothelial cells (MRMEC). As to the kind of experiment: Cell viability assay with Calcein Deep Red AM ester. The class given is cell-based. Conditions: 20 h, 70% ethanol in water; p<0.01. The protocol:
Cell culture: Bone marrow-derived macrophages (BMDM), isolated from adult C57BL/6 mouse bone marrow, were purchased from ScienCell Research Laboratories (Carlsbad, CA) and cultured in ScienCell's phenol red-free Macrophage Medium (MaM) supplemented with 5% fetal bovine serum (FBS), Macrophage Growth Supplement (MaGS), and 1% Penicillin-Streptomycin (Pen, 100 U/mL; Strep, 100 μg/mL). Mouse Primary Retinal Microvascular Endothelial Cells (MRMEC), isolated from C57BL/6 mice, were purchased from Cell Biologics Inc. […] The medium was additionally supplemented with 10% FBS (R&D Systems, Minneapolis, MN). BMDMs and […] were incubated at 37° C., 5% CO2, and 95% relative humidity. Cell viability assay: […] (Passage 4) were seeded on sterile black 96-well plates in complete medium at a density of 1.5×10^4 cells per well. […] This fluorescent compound is redshifted relative to […]=510/540 nm), which is necessary to avoid interference from any InflammaProbe-1-dependent fluorescence during fluorometric measurements. […] Finally, fluorometric measurements were performed at ex/em=620/660 nm using the Cytation 5 microplate reader (BioTek Instruments, Inc., Winooski, VT). Fluorescence intensities were plotted as the percentage of cell viability relative to the control group. The data were expressed as the mean±SD of 6 replicates per group.

The target of another data set is T1, NLRP3 inflammasome (Mus musculus, UniProt Q8R4B8).
T1 construct: InflammaProbe-1 could selectively stain macrophages that have been induced to express NLRP3; host or cells: primary C57BL/6 mouse bone marrow-derived macrophages (BMDM)
T1 sequence (Q8R4B8 whole entry): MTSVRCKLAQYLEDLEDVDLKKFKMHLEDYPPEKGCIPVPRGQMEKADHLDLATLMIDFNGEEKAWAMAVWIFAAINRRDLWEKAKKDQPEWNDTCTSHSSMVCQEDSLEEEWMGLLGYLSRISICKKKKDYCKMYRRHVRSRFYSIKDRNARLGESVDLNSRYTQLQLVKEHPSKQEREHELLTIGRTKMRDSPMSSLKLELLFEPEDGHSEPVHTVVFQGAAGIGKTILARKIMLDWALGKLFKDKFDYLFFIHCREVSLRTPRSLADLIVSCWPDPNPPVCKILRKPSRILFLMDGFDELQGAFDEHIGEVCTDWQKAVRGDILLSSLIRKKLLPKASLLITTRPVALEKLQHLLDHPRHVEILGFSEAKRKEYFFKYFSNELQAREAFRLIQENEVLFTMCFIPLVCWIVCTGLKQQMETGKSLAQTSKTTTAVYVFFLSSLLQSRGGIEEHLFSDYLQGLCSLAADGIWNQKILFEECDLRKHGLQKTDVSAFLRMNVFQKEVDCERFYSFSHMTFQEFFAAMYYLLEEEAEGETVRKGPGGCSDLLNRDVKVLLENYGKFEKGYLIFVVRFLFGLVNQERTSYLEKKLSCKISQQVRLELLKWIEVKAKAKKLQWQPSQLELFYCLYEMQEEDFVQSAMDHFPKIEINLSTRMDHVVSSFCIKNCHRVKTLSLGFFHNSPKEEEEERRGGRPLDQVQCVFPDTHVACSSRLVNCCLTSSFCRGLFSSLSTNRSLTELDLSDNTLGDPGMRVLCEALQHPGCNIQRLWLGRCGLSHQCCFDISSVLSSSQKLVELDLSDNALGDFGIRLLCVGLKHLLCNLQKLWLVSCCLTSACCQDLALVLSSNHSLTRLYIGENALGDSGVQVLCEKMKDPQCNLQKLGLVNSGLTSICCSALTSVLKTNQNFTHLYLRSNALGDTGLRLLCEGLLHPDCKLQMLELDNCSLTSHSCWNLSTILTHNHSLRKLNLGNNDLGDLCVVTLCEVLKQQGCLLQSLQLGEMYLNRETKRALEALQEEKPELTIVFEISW
In words: Inhibition assay of IL-1β (ELISA) in LPS-primed and nigericin-stimulated BMDMs. It is filed as cell-based, murine. The protocol: (§1) Cell culture: Bone marrow-derived macrophages (BMDM), isolated from adult C57BL/6 mouse bone marrow, were purchased from ScienCell Research Laboratories (Carlsbad, CA) and cultured in ScienCell's phenol red-free Macrophage Medium (MaM) supplemented with 5% fetal bovine serum (FBS), Macrophage Growth Supplement (MaGS), and 1% Penicillin-Streptomycin (Pen, 100 U/mL; Strep, 100 μg/mL). Mouse Primary Retinal Microvascular Endothelial Cells (MRMEC), isolated from C57BL/6 mice, were purchased from Cell Biologics Inc. (Chicago, IL) and cultured in Cell Biologics' phenol red-free Endothelial Cell Medium supplemented with 0.1% VEGF, 0.1% Heparin, 0.1% EGF, 0.1% ECGS, 0.1% Hydrocortisone, 2 mM L-Glutamine, and 1% Antibiotic-Antimycotic. The medium was additionally supplemented with 10% FBS (R&D Systems, Minneapolis, MN). BMDMs and MRMECs were incubated at 37° C., 5% CO2, and 95% relative humidity.
Inhibition assay of IL-1β and TNF-α: BMDMs were seeded in 12-well plates at a density of 5×10^4 cells per well. After an overnight incubation, the cells were primed with 50 ng/mL LPS for 3 h, treated with 1 to 10 µM InflammaProbe-1 or CY-09 for 1 h, and stimulated with 10 μM nigericin for another hour to induce NLRP3 activation, as described in the literature. Cell culture supernatants were assayed for mouse IL-1β and TNF-α by performing enzyme-linked immunosorbent assays (ELISA; Invitrogen, Waltham, MA) in accordance with the manufacturer's instructions. The data were expressed as the mean±SD of 3 replicates per group.
(An ELISA detects its analyte on a solid surface through an enzyme-linked reagent.)

In a further data set the test system is TNF-α. As to the kind of experiment: Off-target assay of LPS-induced TNF-α secretion (ELISA) in BMDMs. The class given is cell-based, murine. Conditions: 10 μM; in comparison to InflammaProbe-1, p<0.05. The protocol:
as §1
Inhibition assay of IL-1β and TNF-α: BMDMs were seeded in 12-well plates at a density of 5×10^4 cells per well. After an overnight incubation, the cells were primed with 50 ng/mL LPS for 3 h, treated with 1 to 10 µM InflammaProbe-1 or CY-09 for 1 h, and stimulated with 10 μM nigericin for another hour to induce NLRP3 activation, as described in the literature. […] The data were expressed as the mean±SD of 3 replicates per group.

For the next data set, the target named is NLRP3 (Mus musculus, UniProt Q8R4B8). Conditions: murine model, literature; cited from earlier work.
NLRP3, sequence (Q8R4B8 whole entry): as above

On to `CCO` [70% ethanol, ethanol], for which, in data set [1], the “viability of MRMECs (positive control)” value is “significantly decreased”.

Turning to `O=C(O)c1ccc(/C=C2/SC(=S)N(Cc3cccc(C(F)(F)F)c3)C2=O)cc1` [CY-09], the “decrease of IL-1β levels in comparison to the LPS and nigericin control” value at NLRP3 inflammasome (1 μM, p<0.05) is roughly 1.3 fold; on NLRP3 inflammasome (5 μM, p<0.01), roughly 2 fold; on NLRP3 inflammasome (10 μM, p<0.01), roughly 4 fold. Moreover, the “inhibition of NLRP3-mediated secretion of IL-1β” value at NLRP3 inflammasome (LPS-primed and nigericin-stimulated murine BMDM, 1 to 10 μM) is on record as “dose-dependently inhibited”. In addition, in the data set with TNF-α, the “effect on levels of TNF-α” value was “significantly decreased”. Further, on NLRP3, the “NLRP3-mediated cellular secretion of IL-1β” value was “suppressed”.
